# Test results from patent US20170334899A1, “AMINO-SUBSTITUTED ISOTHIAZOLES” (Bayer Pharma Aktiengesellschaft, priority 2014, published 2017).
# pIC50: −log10 of the molar value.
# Target: T1, catalytic domain of human Bub1 (amino acids 704-1085) (Homo sapiens, UniProt O43683)
# T1 construct: catalytic domain of human Bub1 (amino acids 704-1085); His6 (N); made in house; host or cells: insect cells (Hi5)
# Test: Bub1 kinase assay (TR-FRET)
# Assay type: biochemical
# Conditions: 10 μM ATP, avg, read-out: Bub1 avg (IC50 [mol/l])
# Procedure, shortened: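 Readout is the 665/620 nm TR-FRET ratio from anti-phosphoserine antibody, Eu-labelled anti-mouse IgG and streptavidin-XL665, scaled between no-enzyme and uninhibited controls. Reaction: 1 μM biotinylated peptide, 10 μM ATP, 60 min, 22 °C, after 15 min compound preincubation with His6-Bub1 (704-1085, insect-expressed, ~200 ng/ml).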
# T1 sequence (O43683 704-1085): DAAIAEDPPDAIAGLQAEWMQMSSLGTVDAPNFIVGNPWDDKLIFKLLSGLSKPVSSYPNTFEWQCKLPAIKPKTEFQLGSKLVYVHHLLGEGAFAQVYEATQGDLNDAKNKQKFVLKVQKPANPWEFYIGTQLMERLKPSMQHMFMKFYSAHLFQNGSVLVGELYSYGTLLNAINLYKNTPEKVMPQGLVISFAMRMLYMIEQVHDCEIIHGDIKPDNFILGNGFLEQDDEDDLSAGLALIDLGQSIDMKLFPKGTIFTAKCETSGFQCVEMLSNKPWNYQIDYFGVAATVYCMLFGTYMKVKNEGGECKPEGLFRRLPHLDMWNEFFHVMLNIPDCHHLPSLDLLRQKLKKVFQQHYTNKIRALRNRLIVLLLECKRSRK
row,Compound,pIC50
1,"Cc1nsc(Nc2cnc(C(F)(F)F)cn2)c1C(=O)Nc1ccc(F)c(OC[C@H]2CCCN(CC(F)F)C2)c1 [Example 400, N-(3-{[(3S)-1-(2,2-difluoroethyl)piperidin-3-yl]methoxy}-4-fluorophenyl)-3-methyl-5-{[5-(trifluoromethyl)pyrazin-2-yl]amino}-1,2-thiazole-4-carboxamide]",< 4.70
2,"Cc1nsc(Nc2cnc(C(F)(F)F)cn2)c1C(=O)Nc1ccc(OCC2CCN(CC(F)F)CC2(F)F)nc1 (stereo not shown) [Example 401, N-(6-{[1-(2,2-difluoroethyl)-3,3-difluoropiperidin-4-yl]methoxy}pyridin-3-yl)-3-methyl-5-{[5-(trifluoromethyl)pyrazin-2-yl]amino}-1,2-thiazole-4-carboxamide]",< 4.70
3,"Cc1nsc(Nc2cnc(C(F)(F)F)cn2)c1C(=O)Nc1ccc(OCC2CCN(CCC(F)(F)F)CC2(F)F)nc1 (stereo not shown) [Example 402, N-(6-{[3,3-difluoro-1-(3,3,3-trifluoropropyl)piperidin-4-yl]methoxy}pyridin-3-yl)-3-methyl-5-{[5-(trifluoromethyl)pyrazin-2-yl]amino}-1,2-thiazole-4-carboxamide]",< 4.70
4,"Cc1nsc(Nc2cnc(C(F)(F)F)cn2)c1C(=O)Nc1ccc(F)c(OC[C@@H]2CCN(CC(F)F)C2)c1 [Example 403, N-(3-{[(3R)-1-(2,2-difluoroethyl)pyrrolidin-3-yl]methoxy}-4-fluorophenyl)-3-methyl-5-{[5-(trifluoromethyl)pyrazin-2-yl]amino}-1,2-thiazole-4-carboxamide]",< 4.70
5,"Cc1nsc(Nc2cnc(C(F)(F)F)cn2)c1C(=O)Nc1ccc(OC[C@H]2CCN(CC(F)(F)F)C2)nc1 [Example 404, 3-Methyl-N-(6-{[(3S)-1-(2,2,2-trifluoroethyl)pyrrolidin-3-yl]methoxy}pyridin-3-yl)-5-{[5-(trifluoromethyl)pyrazin-2-yl]amino}-1,2-thiazole-4-carboxamide]",< 4.70
6,"Cc1nsc(Nc2ccc(C#N)cn2)c1C(=O)Nc1ccc(OC[C@H]2CCN(CC(F)(F)F)C2)nc1 [Example 405, 5-[(5-Cyanopyridin-2-yl)amino]-3-methyl-N-(6-{[(35)-1-(2,2,2-trifluoroethyl)pyrrolidin-3-yl]methoxy}pyridin-3-yl)-1,2-thiazole-4-carboxamide]",< 4.70
7,"CCN1CCC(Oc2ccc(NC(=O)c3c(C)nsc3Nc3cnc(C(F)(F)F)cn3)cn2)C(F)(F)C1 (stereo not shown) [Example 406, N-{6-[(1-Ethyl-3,3-difluoropiperidin-4-yl)oxy]pyridin-3-yl}-3-methyl-5-{[5-(trifluoromethyl)pyrazin-2-yl]amino}-1,2-thiazole-4-carboxamide]",< 4.70
8,"Cc1nsc(Nc2cnc(C(F)(F)F)cn2)c1C(=O)Nc1ccc(OCCN2CCC(F)(F)CC2)nc1 [Example 407, N-{6-[2-(4,4-Difluoropiperidin-1-yl)ethoxy]pyridin-3-yl}-3-methyl-5-{[5-(trifluoromethyl)pyrazin-2-yl]amino}-1,2-thiazole-4-carboxamide]",< 4.70
9,"CCCN1C[C@H](F)[C@H](Oc2ccc(NC(=O)c3c(C)nsc3Nc3cnc(C(F)(F)F)cn3)cn2)C1 [Example 408, N-(6-{[(3R,4S)-4-Fluoro-1-propylpyrrolidin-3-yl]oxy}pyridin-3-yl)-3-methyl-5-{[5-(trifluoromethyl)pyrazin-2-yl]amino}-1,2-thiazole-4-carboxamide]",< 4.70
10,"Cc1nsc(Nc2cnc(C(F)(F)F)cn2)c1C(=O)Nc1ccc(O[C@@H]2CN(CCC(F)(F)F)C[C@@H]2F)nc1 [Example 409, N-(6-{[(3R,4S)-4-Fluoro-1-(3,3,3-trifluoropropyl)pyrrolidin-3-yl]oxy}pyridin-3-yl)-3-methyl-5-{[5-(trifluoromethyl)pyrazin-2-yl]amino}-1,2-thiazole-4-carboxamide]",< 4.70
11,"Cc1nsc(Nc2cnc(C(F)(F)F)cn2)c1C(=O)Nc1ccc(O[C@@H]2CN(CC(F)(F)F)C[C@@H]2F)nc1 [Example 410, N-(6-{[(3R,4S)-4-Fluoro-1-(2,2,2-trifluoroethyl)pyrrolidin-3-yl]oxy}pyridin-3-yl)-3-methyl-5-{[5-(trifluoromethyl)pyrazin-2-yl]amino}-1,2-thiazole-4-carboxamide]",< 4.70
12,"Cc1nsc(Nc2cnc(C(F)(F)F)cn2)c1C(=O)Nc1ccc(O[C@@H]2CN(CC(F)F)C[C@@H]2F)nc1 [Example 411, N-(6-{[(3R,4S)-1-(2,2-Difluoroethyl)-4-fluoropyrrolidin-3-yl]oxy}pyridin-3-yl)-3-methyl-5-{[5-(trifluoromethyl)pyrazin-2-yl]amino}-1,2-thiazole-4-carboxamide]",< 4.70
13,"Cc1nsc(Nc2cnc(C(F)(F)F)cn2)c1C(=O)Nc1ccc(F)c(O[C@@H]2CCN(CC(F)F)C2)c1 [Example 412, N-(3-{[(3R)-1-(2,2-Difluoroethyl)pyrrolidin-3-yl]oxy}-4-fluorophenyl)-3-methyl-5-{[5-(trifluoromethyl)pyrazin-2-yl]amino}-1,2-thiazole-4-carboxamide]",< 4.70

# Continued, values first:
row,pIC50,Compound
1,< 4.70,"Cc1nsc(Nc2cnc(C(F)(F)F)cn2)c1C(=O)Nc1ccc(F)c(O[C@@H]2CCN(CC(F)(F)F)C2)c1 [Example 413, N-(4-Fluoro-3-{[(3R)-1-(2,2,2-trifluoroethyl)pyrrolidin-3-yl]oxy}phenyl)-3-methyl-5-{[5-(trifluoromethyl)pyrazin-2-yl]amino}-1,2-thiazole-4-carboxamide]"
2,< 4.70,"Cc1nsc(Nc2cnc(C(F)(F)F)cn2)c1C(=O)Nc1ccc(F)c(O[C@@H]2CCN(CCC(F)(F)F)C2)c1 [Example 414, N-(4-Fluoro-3-{[(3R)-1-(3,3,3-trifluoropropyl)pyrrolidin-3-yl]oxy}phenyl)-3-methyl-5-{[5-(trifluoromethyl)pyrazin-2-yl]amino}-1,2-thiazole-4-carboxamide]"
3,< 4.70,"Cc1nsc(Nc2cnc(C(F)(F)F)cn2)c1C(=O)Nc1ccc(F)c(O[C@H]2CCN(CCC(F)(F)F)C2)c1 [Example 415, N-(4-Fluoro-3-{[(3S)-1-(3,3,3-trifluoropropyl)pyrrolidin-3-yl]oxy}phenyl)-3-methyl-5-{[5-(trifluoromethyl)pyrazin-2-yl]amino}-1,2-thiazole-4-carboxamide]"
4,< 4.70,"Cc1nsc(Nc2cnc(C(F)(F)F)cn2)c1C(=O)Nc1ccc(F)c(O[C@H]2CCN(CC(F)(F)F)C2)c1 [Example 416, N-(4-Fluoro-3-{[(35)-1-(2,2,2-trifluoroethyl)pyrrolidin-3-yl]oxy}phenyl)-3-methyl-5-{[5-(trifluoromethyl)pyrazin-2-yl]amino}-1,2-thiazole-4-carboxamide]"
5,5.74,"Cc1nsc(Nc2cnc(C(F)(F)F)cn2)c1C(=O)Nc1ccc(F)c(O[C@H]2CCN(CC(F)F)C2)c1 [Example 417, N-(3-{[(3S)-1-(2,2-Difluoroethyl)pyrrolidin-3-yl]oxy}-4-fluorophenyl)-3-methyl-5-{[5-(trifluoromethyl)pyrazin-2-yl]amino}-1,2-thiazole-4-carboxamide]"
6,< 4.70,"Cc1nsc(Nc2cnc(C(F)(F)F)cn2)c1C(=O)Nc1ccc(F)c(OC[C@H]2CCCN(CCC(F)(F)F)C2)c1 [Example 418, N-(4-Fluoro-3-{[(3S)-1-(3,3,3-trifluoropropyl)piperidin-3-yl]methoxy}phenyl)-3-methyl-5-{[5-(trifluoromethyl)pyrazin-2-yl]amino}-1,2-thiazole-4-carboxamide]"
